Source: EP0432677B1, “N-(pyrrolo[2,3-d]pyrimidin-3-ylacyl)-glutamic acid derivatives” (THE TRUSTEES OF PRINCETON UNIVERSITY, priority 1989, dated 1991)
Values after ≈ are worked out from the molar mass of the structure shown. “Also recorded” adds a separate entry of the source.

Key:
CCRF-CEM [1] = assay: Reversal of cytotoxicity by added metabolites (hypoxanthine, AICA, thymidine, leucovorin); assay type: cell-based, human
CCRF-CEM [2] = assay: Representative inhibition values against CCRF-CEM cell cultures; assay type: cell-based; settings: Homo sapiens
[3] = tested on: Cem human lymphoblastic leukemia cells; assay: Reversal studies to identify the point of enzymatic inhibition (Example 11); assay type: cell-based; settings: from reversal with 100 µM hypoxanthine and/or 5 µM thymidine
Protocol: The mechanism of action of each compound was determined through further tests employing so-called "reversal" studies. These studies supplied compounds or precursors which, alone or together, identified the specific point of enzymatic inhibition. • (a) Hypoxanthine - Hypoxanthine will reverse the inhibitory effects of a compound if the compound functions as an inhibitor of purine de novo synthesis. The availability of hypoxanthine thus allows cells to bypass purine de novo synthesis. • (b) Thymidine - Thymidine alone will reverse the inhibitory effects of a compound if the compound functions as a specific inhibitor of thymidylate synthetase. • (c) Hypoxanthine and Thymidine - If a compound is determined in (a) to not be an inhibitor of purine de novo synthesis, and in (b) to not be an inhibitor of thymidilate synthetase, then a reversal study utilizing hypoxanthine and thymidine, in combination, will determine whether the compound can produce inhibition of both pathways. Thus if this combination reverses the inhibitory effects of a compound, the compound most likely functions as an inhibitor of dihydrofolate reductase (involved in both purine and pyrimidine biosynthesis).
In each case, the basic procedure outlined above was followed, modified in that 250 µl of the reversal compound [or of each reversal compound in […]] was added to the test wells, and the amount of serumless media added to each test well was decreased [or entirely eliminated in (b)] by the same amount. The reversal compounds were prepared as 8X stock solutions in phosphate buffered saline (sterile filtered through a 0.2 µ acrodisc filter - Gelman) so that 250 µl of the stock solution would yield a final concentration of 100 µM hypoxanthine and/or 5 µM thymidine.

tumor cells = assay: In vivo antitumor activity in mice inoculated with tumor cells, eight daily i.p. doses; parameters: species or system strain DBA/2; settings: for % Inhibition / Tumor Weight: Table V, eight daily doses; for Tumor Weight: mean ± standard deviation
Protocol: Female mice, strain DBA/2, were inoculated with tumor cells. Treatment with the test compounds began the day following inoculation. The treatment consisted of eight daily doses i.p. (intraperitoneal) of either Compounds A and C for eight consecutive days. Tumor size was measured on the day following the last day of treatment to determine the inhibitory effect of the test compounds on tumor growth.

[4] = tested on: Cem human lymphoblastic leukemia cells; assay: Inhibition of growth of Cem human lymphoblastic leukemia cells, 72 hours incubation, Coulter Counter particle count (Example 11); assay type: cell-based; settings: Homo sapiens, CCRF-CEM, 72 hours
Protocol: Each of the compounds was dissolved in 100% dimethylsulfoxide. Dilutions of each compound were prepared to yield a range of test concentrations as hereinafter indicated.
Cem human lymphoblastic leukemia cells are grown in RPMI 1640 media (MABio), supplemented with 10% dialyzed fetal bovine serum (Gibco) at 37°C in humidified atmospheric conditions of 95% air and 5% CO₂. The cells are grown in static suspension (T-flask, Corning) maintained in log phase at a concentration of 3-7 x 10⁵ cells/ml.
(i) 10 µl of a test compound is placed in a well (Costar 24 well clusters). This step is repeated for each test concentration of the compounds. (ii) 500 µl of serum-free media is added to each well. (iii) A sterile bottle containing RPMI 1640 media supplemented with 10% dialyzed fetal bovine serum, 16 mM hepes and 8 mM mops buffers and 3 x 10⁴ cells/ml is placed on a magnetic stirrer. A Wheaton peristaltic pump is used to deliver 1.5 ml of this cell suspension to each well. The resulting final volume delivered to each well is 2.0 ml at a cellular concentration of […]. (iv) The cluster wells are incubated at 37°C in a humidified incubator (95% air, 5% CO₂) for 72 hours. (v) After the incubation period, measurements of each well are taken using the ZB1 Coulter Counter particle counter and the IC₅₀ (concentration inhibiting 50% of cellular growth) is determined. (vi) The results of this test are as follows: Table I

For `Nc1nc2[nH]cc(CCc3ccc(C(=O)N[C@@H](CCC(=O)O)C(=O)O)cc3)c2c(=O)[nH]1`, the “Cytotoxicity reversed by addition of aminoimidazolecarboxamide (AICA)” value (CCRF-CEM [1]; addition of aminoimidazolecarboxamide (AICA)) was “not reversed”, the “Cytotoxicity reversed by addition of hypoxanthine” value (CCRF-CEM [1]; addition of hypoxanthine) was “not reversed” and the “Cytotoxicity reversed by addition of thymidine” value (CCRF-CEM [1]; addition of thymidine) was “reversed”. It also gave an IC50 (CCRF-CEM [2]) of 0.004 µg/mL (≈ 0.00936 µM).
In the case of `Nc1nc(O)c2c(n1)NCC2CCc1ccc(C(=O)NC(CCC(=O)O)C(=O)O)cc1` (centres unmarked) [Compound A, reference compound], the “mechanism of action (point of enzymatic inhibition)” value [3] is reported as “appear to inhibit TS”, the “% Inhibition” value (tumor cells; dose 3.125 mg/kg i.p.) is reported as 0% and the “Tumor Weight” value (tumor cells; dose 3.125 mg/kg i.p.) is reported as 2825 ± 822 mg. The “% Inhibition” value (tumor cells; dose 6.25 mg/kg i.p.) was 0%, the “Tumor Weight” value (tumor cells; dose 6.25 mg/kg i.p.) was 2719 ± 413 mg and the “% Inhibition” value (tumor cells; dose 12.5 mg/kg i.p.) was 0%. The “Tumor Weight” value (tumor cells; dose 12.5 mg/kg i.p.) was 3360 ± 703 mg, the “% Inhibition” value (tumor cells; dose 25 mg/kg i.p.) was 12% and the “Tumor Weight” value (tumor cells; dose 25 mg/kg i.p.) was 2121 ± 410 mg. For the same molecule, the “% Inhibition” value (tumor cells; dose 50 mg/kg i.p.) was 19%, the “Tumor Weight” value (tumor cells; dose 50 mg/kg i.p.) was 1935 ± 498 mg and the “% Inhibition” value (tumor cells; dose 100 mg/kg i.p.) was 0%. For the same molecule, the “Tumor Weight” value (tumor cells; dose 100 mg/kg i.p.) was 3447 ± 747 mg, the “% Inhibition” value (tumor cells; dose 200 mg/kg i.p.) was 0% and the “Tumor Weight” value (tumor cells; dose 200 mg/kg i.p.) was 2525 ± 694 mg. The “inhibitory effect on tumor growth in vivo” value (tumor cells; overall assessment in words) was “essentially no inhibitory effect; also recorded: inactive”, the activity at 0.045 µg/mL ([4]; concentration 0.045 µg/ml, read-out: Cellular Growth (%)) was 100% and the activity at 0.137 µg/mL ([4]; concentration 0.137 µg/ml, read-out: Cellular Growth (%)) was 63.9%. It also gave an activity at 0.411 µg/mL ([4]; concentration 0.411 µg/ml, read-out: Cellular Growth (%)) of 21.5%, an activity at 1.23 µg/mL ([4]; concentration 1.23 µg/ml, read-out: Cellular Growth (%)) of 16.1% and an activity at 3.7 µg/mL ([4]; concentration 3.7 µg/ml, read-out: Cellular Growth (%)) of 15.3%. For the same molecule, the activity at 11.1 µg/mL ([4]; concentration 11.1 µg/ml, read-out: Cellular Growth (%)) was 16.2%, the activity at 33.3 µg/mL ([4]; concentration 33.3 µg/ml, read-out: Cellular Growth (%)) was 15.5% and the activity at 100 µg/mL ([4]; concentration 100.0 µg/ml, read-out: Cellular Growth (%)) was 13.1%. The IC50 ([4]; concentration inhibiting 50% of cellular growth, read-out: relative overall in vitro inhibitory concentration (IC50)) was 0.2 µg/mL (≈ 0.466 µM).
